# Assay results as given in patent US5648381A, “Derivatives of indan-1,3-dione and indan-1,2,3-trione, methods of preparing them and therapeutic use thereof” (Innothera, priority 1992, dated 1997).
# Columns and labels:
# [1] = Free radical trapping (DPPH) effect; settings: in vitro, DPPH model
# From the text: (§1) In the in vitro test, the compounds were solubilised in aqueous solution, either pure or containing DMSO or alcohol.
# The overall "free radical trapping" effect was studied in vitro in a model using 1,1-diphenyl-2-picrylhydrazyl (DPPH) as stable free radical, the method being derived from that described by Lamaison et al., Plantes Medic. et phytotheraphie, XXII, 1988, 231-234.
# saphena veins of rabbits = assay: Contraction of isolated saphena veins produced by depolarisation (KCl, hyperpotassic solution); settings: KCl 40 mM, compound 10 nM to 30 μM, rabbit; for EC50: Oryctolagus cuniculus, read-out: ED50 for increase in contractions of the saphena veins produced by KCl
# Description: as §1
# The contractile effect was measured in vitro:
# by the contractile force exerted by vascular rings, either quiescent or stimulated (electrically or by physiological agents) and maintained under isometric conditions, and
# The formula (A) compounds and their salts, if any, increase the contraction of animal saphena veins produced by noradrenalin and depolarisation (hyperpotassic solution) without in most cases affecting the arterial contractile responses. For example, 2-hydroxy-2-(2-methoxybenzoyl hydrazino)-indan-1,3-dione and the compound in Example 22 (10 nM to 30 μM) produce a more than 50% increase (ED50 ±0.3 microM) in contractions of the saphena veins of rabbits produced by KCl (40 mM).
# [2] = tested on: oedema and leucocyte migration in the pleural cavity; assay: Carrageenin-induced pleurisy in the rat; type: in vivo; settings: intraperitoneally twice 20 mg/kg, six hours after carrageenin
# Description: (§2) In the in vivo test, the products were administered intravenously in the form of a pure aqueous solution or intraperitoneally in the form of an aqueous solution optionally containing DMSO or orally in solution or in suspension in carboxymethyl cellulose or in a composite aqueous solution containing Tween® and DMSO in certain cases.
# The compounds in Examples 1, 3 and 11 and 2-hydroxy-2-(3-methoxybenzoyl hydrazino)-indan-1,3-dione reduce vascular permeability by 10 to 50% when measured one to two hours after intraperitoneal administration of 5-20 mg/kg and 2 to 4 hours after oral administration of 5-20 mg/kg to the rat. The compound in Example 9 and 2-isonicotinoyl hydrazonoindan-1,3-dione, administered intraperitoneally twice in doses of 20 mg/kg, inhibit oedema and leucocyte migration in the pleural cavity, six hours after injection of carrageenin in the model of pleurisy in the rat.
# [3] = Toxicity, single oral administration to the mouse; type: in vivo; settings: 1 g/kg
# From the text: The formula (A) compounds and their salts if any have very low toxicity.
# [4] = tested on: basic venous tone of the rat; assay: Basic venous tone and arterial pressure in vivo (normal and after cardiac arrest); settings: 1 to 3 picomols intravenously
# Description: as §2
# In vivo, the arterial and venous pressure was measured under normal conditions and after cardiac arrest. During cardiac arrest, the venous tone was calculated from the venous and arterial pressure measured at equilibrium and corrected in dependence on the relative differences in compliance between these two networks (Samar and Coleman, Am. J. Physiol., 1978, 234:H94-100; Yamamoto et al., Am. J. Physiol., 1980, 238:H823-828).
smiles,measurement,setting,value
"COc1ccc2c(=O)c(=NNc3cccc(F)c3)c(=O)c2c1 [2-(3-fluorophenyl hydrazono)-5-methoxyindan-1,3-dione]",maximum anti-radical effect,[1],more than 95%
"COc1ccccc1C(=O)NNC1(O)C(=O)c2ccccc2C1=O [2-hydroxy-2-(2-methoxybenzoyl hydrazino)-indan-1,3-dione]",increase in contractions of the saphena veins produced by KCl,saphena veins of rabbits,more than 50%
same,EC50,saphena veins of rabbits,~0.3 µM
"O=C(NN=c1c(=O)c2ccccc2c1=O)c1ccncc1 [2-isonicotinoyl hydrazonoindan-1,3-dione]",inhibition of leucocyte migration in the pleural cavity,[2],inhibit
same,inhibition of oedema,[2],inhibit
"O=c1c(=NNc2ccccc2)c(=O)c2ccccc12 [2-phenyl hydrazonoindan-1,3-dione]",deaths,[3],no deaths
same,observed effects,[3]; in certain cases,coloured diarrhoea and coloured urine
"O=C(NNC1(O)C(=O)c2ccccc2C1=O)c1ccccc1 [Example 3, 2-benzoyl hydrazino-2-hydroxy-indan-1,3-dione]",increase in the basic venous tone,[4],more than 20%
"Cc1ccccc1C(=O)NNC1(O)C(=O)c2ccccc2C1=O [Example 6, 2-hydroxy-2-(2-methylbenzoylhydrazino)-indan-1,3-dione]",effect on arterial pressure,[4],without affecting the arterial pressure
same,increase in the basic venous tone,[4],more than 20%
"O=C(NNC1(O)C(=O)c2ccccc2C1=O)c1ccccc1O [Example 9, 2-hydroxy-2-(2-hydroxybenzoylhydrazino)-indan-1,3-dione]",inhibition of leucocyte migration in the pleural cavity,[2],inhibit
same,inhibition of oedema,[2],inhibit
same,maximum anti-radical effect,[1],more than 95%
"COc1ccc(C(=O)NNC2(O)C(=O)c3ccccc3C2=O)cc1OC [Example 11, 2-(3,4-dimethoxybenzoylhydrazino)-2-hydroxyindan-1,3-dione]",effect on arterial pressure,[4],without affecting the arterial pressure
same,increase in the basic venous tone,[4],more than 20%
"COC(=O)NN=c1c(=O)c2ccccc2c1=O [Example 22, 2-methoxycarbonyl hydrazonoindan-1,3-dione]",increase in contractions of the saphena veins produced by KCl,saphena veins of rabbits,more than 50%
same,EC50,saphena veins of rabbits,~0.3 µM
